The source made the active and inactive calls. The rule behind the calls is not given here.
Key:
[1] = Half life in Sprague-Dawley rat at 100 mg/kg, po administered as single dose via gavage by LC-MS/MS analysis; assay type: ADME, organism-based; settings: in vivo
Histone deacetylase 3 = Histone deacetylase 3 (Homo sapiens, UniProt O15379); assay: Inhibition of HDAC3 (unknown origin) using substrate 3 after 30 mins by fluorescence assay
[2] = Oral bioavailability in Sprague-Dawley rat at 100 mg/kg administered as single dose via gavage by LC-MS/MS analysis; assay type: ADME, organism-based; settings: in vivo
HCT-116 [3] = assay: Induction of apoptosis in human HCT116 cells at 5 uM after 48 hrs by Annexin V-FITC/propidium iodide staining based flow cytometry relative to control; assay type: functional
Histone deacetylase 2 = Histone deacetylase 2 (Homo sapiens, UniProt Q92769); assay: Inhibition of HDAC2 (unknown origin) using substrate 3 after 30 mins by fluorescence assay
Chain of Histone deacetylase 2 (Q92769 whole entry): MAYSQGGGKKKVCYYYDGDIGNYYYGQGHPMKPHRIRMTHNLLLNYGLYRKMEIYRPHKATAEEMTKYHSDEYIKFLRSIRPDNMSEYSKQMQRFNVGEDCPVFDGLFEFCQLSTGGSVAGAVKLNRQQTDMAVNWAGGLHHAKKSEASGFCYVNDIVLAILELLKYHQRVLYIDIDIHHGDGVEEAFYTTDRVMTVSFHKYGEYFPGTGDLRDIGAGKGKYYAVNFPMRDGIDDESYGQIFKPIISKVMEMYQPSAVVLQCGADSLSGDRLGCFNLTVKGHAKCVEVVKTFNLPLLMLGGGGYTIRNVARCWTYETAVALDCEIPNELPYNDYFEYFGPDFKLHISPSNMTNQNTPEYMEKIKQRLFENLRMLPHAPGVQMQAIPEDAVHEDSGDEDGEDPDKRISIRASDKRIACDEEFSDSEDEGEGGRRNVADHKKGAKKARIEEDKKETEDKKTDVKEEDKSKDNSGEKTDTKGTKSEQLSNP

[4] = Half life in mouse liver microsomes at 1 uM by LC-MS/MS analysis; assay type: ADME, microsome
[5] = Tmax in Sprague-Dawley rat at 100 mg/kg, po administered as single dose via gavage by LC-MS/MS analysis; assay type: ADME, organism-based; settings: in vivo
[6] = Stability of the compound in PBS buffer after 24 hrs; assay type: physicochemical
[7] = Ratio of LC50 for human HeLa cells to EC50 for IDO1 in IFN-gamma-stimulated human HeLa cells; assay type: toxicity
HCT-116 [8] = assay: Induction of apoptosis in human HCT116 cells after 48 hrs by Annexin V-FITC/propidium iodide staining based flow cytometry; assay type: functional, cell-based
[9] = AUC (0 to infinity) in Sprague-Dawley rat at 2 mg/kg, iv administered as single dose by LC-MS/MS analysis; assay type: ADME, organism-based; design: dose 2 mg/kg, time infinity, route intravenous; settings: in vivo
Mus musculus [10] = assay: Toxicity in immunocompetent C57BL/6 mouse assessed as body weight loss at 100 mg/kg, po bid administered via gavage for 14 consecutive days measured 3 times per week; assay type: organism-based; settings: in vivo
[11] = tested on: Lewis lung carcinoma cell line; assay: Antiproliferative activity against mouse LLC cells after 48 hrs by CCK-8 assay; assay type: functional, cell-based
[12] = biological target: T1, Indoleamine 2,3-dioxygenase 1 (Homo sapiens, UniProt P14902); assay: Inhibition of recombinant human GST-tagged IDO1 (1 to 404 residues) using D-Tryptophan as substrate
T1 sequence (P14902 whole entry, the tested form may be a part): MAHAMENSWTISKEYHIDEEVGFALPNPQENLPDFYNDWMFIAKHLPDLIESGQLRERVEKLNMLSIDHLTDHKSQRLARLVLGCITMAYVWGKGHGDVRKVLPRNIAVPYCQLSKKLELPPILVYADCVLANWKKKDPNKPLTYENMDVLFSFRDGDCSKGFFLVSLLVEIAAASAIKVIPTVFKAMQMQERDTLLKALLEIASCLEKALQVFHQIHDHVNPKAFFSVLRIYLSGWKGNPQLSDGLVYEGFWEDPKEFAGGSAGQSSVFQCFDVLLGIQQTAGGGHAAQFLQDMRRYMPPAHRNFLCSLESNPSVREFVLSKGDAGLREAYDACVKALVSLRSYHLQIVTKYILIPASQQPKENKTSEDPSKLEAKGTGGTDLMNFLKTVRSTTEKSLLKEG

[13] = Half life in immunocompetent C57BL/6 mouse implanted with mouse LLC cells at 100 mg/kg, po bid administered via gavage; assay type: ADME, organism-based; settings: in vivo
[14] = Apparent clearance in mouse liver microsomes; assay type: ADME, microsome
[15] = AUC (0 to infinity) in Sprague-Dawley rat at 100 mg/kg, po administered as single dose via gavage by LC-MS/MS analysis; assay type: ADME, organism-based; design: dose 100 mg/kg, time infinity, route oral; settings: in vivo
A549 = assay: Antiproliferative activity against human A549 cells after 48 hrs by CCK-8 assay; assay type: functional, cell-based; settings: A549, 48 h
[16] = Cmax in Sprague-Dawley rat at 2 mg/kg, iv administered as single dose by LC-MS/MS analysis; assay type: ADME, organism-based; design: dose 2 mg/kg, route intravenous; settings: in vivo
[17] = Solubility of the compound in water; assay type: physicochemical
CT26 = assay: Antiproliferative activity against mouse CT26 cells after 48 hrs by CCK-8 assay; assay type: functional, cell-based; settings: CT26, 48 h
HCT-116 [18] = assay: Induction of apoptosis in human HCT116 cells at 20 uM after 48 hrs by Annexin V-FITC/propidium iodide staining based flow cytometry relative to control; assay type: functional
[19] = biological target: T1, Indoleamine 2,3-dioxygenase 1; assay: Inhibition of IDO1 in IFN-gamma-stimulated human HeLa cells assessed as decrease in kynurenine levels after 48 hrs; assay type: cell-based
HCT-116 [20] = assay: Antiproliferative activity against human HCT116 cells after 48 hrs by CCK-8 assay; assay type: functional, cell-based; settings: HCT-116, 48 h
Mus musculus [21] = assay: In vivo inhibition of IDO1 in wild type C57BL/6 mouse assessed as reduction in kynurenine levels in plasma at 100 mg/kg, po administered via gavage after 3 to 8 hrs by LC-MS/MS analysis; assay type: functional, organism-based
[22] = Tmax in Sprague-Dawley rat at 2 mg/kg, iv administered as single dose by LC-MS/MS analysis; assay type: ADME, organism-based; settings: in vivo
[23] = AUC in immunocompetent C57BL/6 mouse implanted with mouse LLC cells at 100 mg/kg, po bid administered via gavage; assay type: ADME, organism-based; settings: in vivo
Histone deacetylase 1 = Histone deacetylase 1 (Homo sapiens, UniProt Q13547); assay: Inhibition of recombinant human full length HDAC1 using fluorogenic substrate 3 after 30 mins by fluorescence assay
Chain of Histone deacetylase 1 (Q13547 whole entry): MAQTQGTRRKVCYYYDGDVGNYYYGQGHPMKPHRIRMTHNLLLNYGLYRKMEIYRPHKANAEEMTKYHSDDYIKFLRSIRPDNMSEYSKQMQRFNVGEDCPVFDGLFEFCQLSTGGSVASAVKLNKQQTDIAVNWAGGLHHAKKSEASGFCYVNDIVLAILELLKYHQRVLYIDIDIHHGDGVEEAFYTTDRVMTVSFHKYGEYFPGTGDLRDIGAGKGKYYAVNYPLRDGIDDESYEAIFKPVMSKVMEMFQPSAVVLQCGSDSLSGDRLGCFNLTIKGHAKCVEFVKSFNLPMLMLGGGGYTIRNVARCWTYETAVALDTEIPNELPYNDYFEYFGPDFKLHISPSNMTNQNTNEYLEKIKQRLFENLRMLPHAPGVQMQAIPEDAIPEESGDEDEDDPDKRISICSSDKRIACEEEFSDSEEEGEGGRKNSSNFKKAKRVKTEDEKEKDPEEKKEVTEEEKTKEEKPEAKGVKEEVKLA

HeLa = assay: Cytotoxicity against human HeLa cells assessed as inhibition of cell growth after 48 hrs by CCK-8 assay; assay type: cell-based
HCT-116 [24] = assay: Cell cycle arrest in human HCT116 cells assessed as accumulation at G2/M phase up to 48 hrs by propidium iodide staining based flow cytometry (reference value: 27.2%); assay type: functional
[25] = tested on: Lewis lung carcinoma cell line; assay: Antitumor activity against mouse LLC cells implanted in immunocompetent C57BL/6 mouse assessed as tumor growth inhibition at 100 mg/kg, po bid administered via gavage for 14 consecutive days measured every 4 days relative to control; assay type: functional; settings: 96 h, read-out: TGI
[26] = Cmax in Sprague-Dawley rat at 100 mg/kg, po administered as single dose via gavage by LC-MS/MS analysis; assay type: ADME, organism-based; design: dose 100 mg/kg, route oral; settings: in vivo
HCT-116 [27] = assay: Cell cycle arrest in human HCT116 cells assessed as accumulation at G2/M phase by propidium iodide staining based flow cytometry; assay type: functional; settings: TDE = time-dependent effect
HT-29 = assay: Antiproliferative activity against human HT-29 cells after 48 hrs by CCK-8 assay; assay type: functional, cell-based; settings: HT-29, 48 h
[28] = Half life in Sprague-Dawley rat at 2 mg/kg, iv administered as single dose by LC-MS/MS analysis; assay type: ADME, organism-based; settings: in vivo
[29] = biological target: T2, Protein deacetylase HDAC6 (Homo sapiens, UniProt Q9UBN7); assay: Inhibition of HDAC6 (unknown origin) using substrate 3 after 30 mins by fluorescence assay
T2 sequence (Q9UBN7 whole entry): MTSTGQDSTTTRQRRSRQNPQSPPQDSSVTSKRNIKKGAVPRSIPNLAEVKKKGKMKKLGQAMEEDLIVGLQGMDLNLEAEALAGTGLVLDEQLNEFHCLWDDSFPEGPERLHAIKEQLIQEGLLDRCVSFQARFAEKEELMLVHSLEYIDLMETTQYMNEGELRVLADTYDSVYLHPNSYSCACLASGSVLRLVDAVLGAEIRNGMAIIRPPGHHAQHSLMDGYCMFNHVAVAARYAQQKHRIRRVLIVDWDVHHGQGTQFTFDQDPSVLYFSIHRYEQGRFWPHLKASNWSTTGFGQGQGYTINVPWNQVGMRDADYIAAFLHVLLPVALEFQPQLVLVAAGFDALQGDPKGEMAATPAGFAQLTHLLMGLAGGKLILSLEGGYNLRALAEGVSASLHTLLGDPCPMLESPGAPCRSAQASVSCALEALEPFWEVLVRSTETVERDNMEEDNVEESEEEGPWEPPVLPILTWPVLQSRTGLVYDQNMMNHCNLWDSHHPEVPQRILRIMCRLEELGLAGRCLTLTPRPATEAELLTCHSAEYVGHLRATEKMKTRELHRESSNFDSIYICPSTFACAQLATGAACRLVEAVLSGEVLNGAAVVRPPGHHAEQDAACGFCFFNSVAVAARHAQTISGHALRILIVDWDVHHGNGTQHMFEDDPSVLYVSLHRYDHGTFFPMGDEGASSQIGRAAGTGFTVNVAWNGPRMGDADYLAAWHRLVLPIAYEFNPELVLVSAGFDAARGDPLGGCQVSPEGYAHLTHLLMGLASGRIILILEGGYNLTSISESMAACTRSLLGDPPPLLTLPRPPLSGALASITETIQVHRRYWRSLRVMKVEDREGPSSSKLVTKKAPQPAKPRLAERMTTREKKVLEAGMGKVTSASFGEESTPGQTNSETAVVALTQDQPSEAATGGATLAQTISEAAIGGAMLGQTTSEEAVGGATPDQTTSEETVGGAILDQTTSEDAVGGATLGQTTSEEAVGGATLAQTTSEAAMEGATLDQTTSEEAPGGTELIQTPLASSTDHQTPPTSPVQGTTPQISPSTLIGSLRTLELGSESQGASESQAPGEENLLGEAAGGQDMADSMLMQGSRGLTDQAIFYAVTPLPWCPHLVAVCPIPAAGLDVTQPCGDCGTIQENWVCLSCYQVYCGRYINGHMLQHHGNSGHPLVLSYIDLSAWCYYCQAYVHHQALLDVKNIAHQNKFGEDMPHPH

HCT-116 [30] = assay: Induction of apoptosis in human HCT116 cells at 10 uM after 48 hrs by Annexin V-FITC/propidium iodide staining based flow cytometry relative to control; assay type: functional

Chain of Histone deacetylase 3 (O15379 whole entry): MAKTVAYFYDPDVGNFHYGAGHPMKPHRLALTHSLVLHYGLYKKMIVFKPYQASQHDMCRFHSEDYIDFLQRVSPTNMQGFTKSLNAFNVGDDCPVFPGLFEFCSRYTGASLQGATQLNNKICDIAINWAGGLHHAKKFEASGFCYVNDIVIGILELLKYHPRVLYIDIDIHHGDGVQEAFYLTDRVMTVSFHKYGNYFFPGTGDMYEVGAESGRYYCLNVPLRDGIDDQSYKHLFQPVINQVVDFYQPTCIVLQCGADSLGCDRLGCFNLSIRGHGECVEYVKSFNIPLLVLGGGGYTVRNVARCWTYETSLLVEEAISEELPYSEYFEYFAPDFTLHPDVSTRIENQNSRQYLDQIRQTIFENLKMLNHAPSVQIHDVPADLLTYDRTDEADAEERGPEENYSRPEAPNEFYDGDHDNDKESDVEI

## Nc1ccccc1NC(=O)c1ccc(C(=O)NCCNc2nonc2/C(=N/O)Nc2ccc(F)c(Br)c2)cc1
[1]
  half-life: 3.4 h
Histone deacetylase 3
  IC50: 45 nM
[2]
  bioavailability: 18%
HCT-116 [3]
  Activity: 18.8%
Histone deacetylase 2
  IC50: 179 nM
[4]
  half-life at 1 µM: 0.806 h
[5]
  Tmax: 2 h
[6]
  Stability: Stable
[7]
  selectivity ratio: 60.4
HCT-116 [8]
  Activity: Dose-dependent effect
[9]
  AUC(0-inf): 3650 ng·h/mL
Mus musculus [10]
  Activity: Non-Toxic
[11]
  IC50: 17600 nM
[12]
  IC50: 69 nM
[13]
  half-life: 3.4 h
[14]
  CL(app): 28.7 µL/min/mg
[15]
  AUC(0-inf): 33500 ng·h/mL
A549
  IC50: 16700 nM
[16]
  Cmax: 12000 ng/mL
[17]
  solubility: < 10 µg/mL
CT26
  IC50: 59800 nM
HCT-116 [18]
  Activity: 48.9%
[19]
  EC50: 410 nM
HCT-116 [20]
  IC50: 5120 nM
Mus musculus [21]
  inhibition: Active
[22]
  Tmax: 4.98 min
[23]
  AUC: 60 µM·h
Histone deacetylase 1
  IC50: 66.5 nM
HeLa
  LC50: 24770 nM
HCT-116 [24]
  Activity: 47.4%
[25]
  inhibition in vivo at 100 mg/kg: 56%
[26]
  Cmax: 5760 ng/mL
HCT-116 [27]
  Activity: Tde
HT-29
  IC50: 11700 nM
[28]
  half-life: 1.4 h
[29]
  IC50: 70 nM
HCT-116 [30]
  Activity: 29.9%
